Where “and” joins values, the source holds several entries; their conditions need not be identical. Equal entries are not always repeated. Marks after values point to notes of the source that are not given here.
Experiments:
[1] = target: HSV1-TK and GMPK from S. cerevisiae (Human herpesvirus 1, UniProt P0DTH5); assay: TK-GMPK coupling, % of products formed; type: biochemical, herpes simplex virus type 1; S. cerevisiae; details: for % of the products formed, NDP / % of the products formed, NMP: substrate 100 μM
Procedure: (§1) In a preferred coupling mode, the incubation is carried out in 100 μl of 50 mM Tris/HCl buffer pH 7.8, containing 1 mg/ml of BSA (bovine serum albumin), 5 mM ATP, 4 mM MgCl2, 12 mM KCl, 2 mM DTT, 600 μM EDTA, 100 μM [8-3H]-GCV (40 nCi/nmol) or 100 μM [2-3H]-ACV 40 nCi/nmol and various quantities of TK, GuK and NDPK (cf Table 2).

[2] = target: T1, HSV1-TK, GMPK and baker's yeast NDPK (Human herpesvirus 1, UniProt P0DTH5); assay: TK-GMPK-NDPK coupling with baker's yeast NDPK; type: biochemical, herpes simplex virus type 1; S. cerevisiae; details: substrate 100 μM
T1 construct: purchased SIGMA

[3] = target: T2, HSV1-TK, GMPK and human (erythrocyte) NDPK (Human herpesvirus 1, UniProt P0DTH5); assay: TK-GMPK-NDPK coupling with human erythrocyte NDPK; type: biochemical; details: substrate 100 μM
T2 construct: purchased SIGMA; host or cells: human erythrocytes (NDPK)
Procedure: as §1

[4] = target: T3, HSV1-TK, GMPK and bovine (liver) NDPK (Human herpesvirus 1, UniProt P0DTH5); assay: TK-GMPK-NDPK coupling with bovine liver NDPK; type: biochemical; details: substrate 100 μM
T3 construct: purchased SIGMA; host or cells: bovine liver (NDPK)
Procedure: as §1

[5] = target: T4, HSV1-TK/S. cerevisiae GMPK fusion protein (UniProt P0DTH5+P15454, V34A); assay: Phosphorylation to diphosphate by TK-GMPK fusion protein; type: biochemical, herpes simplex virus type 1; S. cerevisiae
T4 construct: made in house; host or cells: E. coli BL21 DE3 pXL3098 (pET11a)
T4 sequence (P0DTH5+P15454 with tags, fused parts or gaps P15454:V34A): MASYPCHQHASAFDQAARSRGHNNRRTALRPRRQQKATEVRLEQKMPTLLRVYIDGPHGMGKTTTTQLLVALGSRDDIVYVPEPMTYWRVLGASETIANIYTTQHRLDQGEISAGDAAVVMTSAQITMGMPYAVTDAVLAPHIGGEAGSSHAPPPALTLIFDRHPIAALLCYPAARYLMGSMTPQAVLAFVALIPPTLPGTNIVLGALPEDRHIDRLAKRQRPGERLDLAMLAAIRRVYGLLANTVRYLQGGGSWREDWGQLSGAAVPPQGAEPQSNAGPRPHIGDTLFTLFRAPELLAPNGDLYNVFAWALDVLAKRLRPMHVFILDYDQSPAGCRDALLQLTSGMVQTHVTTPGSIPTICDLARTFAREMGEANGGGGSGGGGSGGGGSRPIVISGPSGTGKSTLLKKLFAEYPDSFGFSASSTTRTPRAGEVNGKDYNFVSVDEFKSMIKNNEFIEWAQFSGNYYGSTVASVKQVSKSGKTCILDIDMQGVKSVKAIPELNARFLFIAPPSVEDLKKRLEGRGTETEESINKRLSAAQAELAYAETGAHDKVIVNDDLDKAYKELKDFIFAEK
Procedure: (§2) The reaction is stopped by heating for 3 min at 80° C.; after centrifugation, 100 μl of incubation product are analyzed in the following system: […]

Mixture 2-865:H12/GMPK = assay: Phosphorylation to diphosphate by mixture of 2-865:H12 and GMPK; type: biochemical
Procedure: The capacity of the TK-GMPK fusion protein to convert GCV or ACV to GCVDP or ACVDP compared with a synthetic mixture of TK and GMPK is determined in the following manner:
as §2

[6] = target: Mixture wild type TK/GMPK (Human herpesvirus 1, UniProt P0DTH5); type: biochemical, herpes simplex virus type 1; S. cerevisiae; details: Mixture wild type/GMPK 1.66/0.33 μg; GCV 100 μM
Procedure: as §2

glioma = details: rats having a glioma, HSV1-TK gene expressed, 150 mg/kg doses injected; cited from earlier work
mice = details: mouse, in vivo, 150 mg/kg; cited from earlier work
[7] = target: T5, Yeast guanylate kinase (S. cerevisiae) (Saccharomyces cerevisiae, UniProt P15454); assay: Kinetic constants of yeast guanylate kinase for GCVMP and ACVMP; type: biochemical; details: for Km / Vmax: yeast GMPK, 30° C., pH 7.8, 4 mM ATP
T5 sequence (P15454 1-187): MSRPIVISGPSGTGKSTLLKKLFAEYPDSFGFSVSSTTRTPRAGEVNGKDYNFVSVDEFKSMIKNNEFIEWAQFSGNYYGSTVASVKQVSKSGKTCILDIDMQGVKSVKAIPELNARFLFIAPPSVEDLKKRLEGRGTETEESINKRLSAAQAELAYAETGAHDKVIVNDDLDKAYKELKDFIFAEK
Procedure: The kinetic constants for the yeast GMP kinase purified as described in Example 3 are determined under the following enzymatic assay conditions: The yeast GMP kinase is incubated for 10 min at 30° C. in 100 μl of 50 mM Tris/HCl buffer pH 7.8 containing 4 mM ATP, 10 mM MgCl2, 100 mM KCl, 1 mg/ml BSA (bovine serum albumin) and 5-100 μ[…] (40 nCi/nmol) or 200-3200 μ[…] (40 nCi/nmol). he reaction is stopped by heating the reaction mixture for 3 min at 80° C., 50 μl of 10 mM potassium phosphate buffer pH 3.5 are added, and after centrifugation for 2 min at 10,000×g, 100 μl of supernatant are analysed by high performance liquid chromatography (HPLC) in the following system: for the calculation of the kinetic constants, the quantity of yeast GMP kinase introduced into the enzymatic reaction is adjusted so as to convert at most 10% of the substrate initially introduced. The Michaelis curves are adjusted to the experimental points with the aid of the Grafit software (Sigma). […] For substrates entering into competition, the Vmax/Km constant determines the specificity of the enzyme for these substrates. It is known by the name of “specificity constant” [A. Fersht, Enzyme Structure and Mechanism, 1985, W. H. Fréeman and Co., London].

[8] = target: T6, Human guanylate kinase (erythrocytes) (Homo sapiens, UniProt Q16774); details: human erythrocyte GMPK, published values a, c, cited from earlier work; for Km: b
T6 construct: enzymatic preparations of guanylate kinase and of nucleoside diphosphate kinase of human erythrocytes; host or cells: human erythrocytes
T6 sequence (Q16774 1-197): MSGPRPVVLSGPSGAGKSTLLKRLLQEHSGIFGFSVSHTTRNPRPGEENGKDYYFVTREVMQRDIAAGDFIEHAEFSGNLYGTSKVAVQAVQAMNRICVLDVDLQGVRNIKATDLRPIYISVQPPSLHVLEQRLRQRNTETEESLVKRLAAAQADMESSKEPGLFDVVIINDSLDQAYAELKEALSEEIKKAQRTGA

[9] = TK 11.7 μg, GMPK 74 μg, yeast NDPK 1.5 μg, 20 min
[10] = TK 11.7 μg, GMPK 74 μg, yeast NDPK 15 μg, 30 min
[11] = TK 11.7 μg, GMPK 74 μg, human NDPK 6.75 μg, 30 min
[12] = TK 11.7 μg, GMPK 74 μg, bovine NDPK 5 μg, 30 min
[13] = TK 10.4 μg, GMPK 7.4 μg, 30 min
[14] = TK 1.3 μg, GMPK 2.5 μg, yeast NDPK 0.75 μg, 60 min
[15] = TK 10.4 μg, GMPK 7.4 μg, yeast NDPK 0.75 μg, 20 min
[16] = TK 10.4 μg, GMPK 7.4 μg, yeast NDPK 1.5 μg, 30 min
[17] = TK 10.4 μg, GMPK 7.4 μg, human NDPK 0.675 μg, 20 min
[18] = TK 10.4 μg, GMPK 7.4 μg, human NDPK 6.75 μg, 30 min
[19] = TK 10.4 μg, GMPK 7.4 μg, bovine NDPK 0.5 μg, 20 min
[20] = TK 10.4 μg, GMPK 7.4 μg, bovine NDPK 5 μg, 30 min

Compound: Nc1nc2c(ncn2COCCO)c(=O)[nH]1 [ACV, acyclovir]
- % of the products formed, NDP ([1]; TK 11.7 μg, GMPK 74 μg, 20 min): 54%
- % of the products formed, NMP ([1]; TK 11.7 μg, GMPK 74 μg, 20 min): 26.0%
- % of the products formed, NDP [2, 9]: 60.0%
- % of the products formed, NMP [2, 9]: 13.0%
- % of the products formed, NTP [2, 9]: 8%
- % of the products formed, NDP [2, 10]: 4.6%
- % of the products formed, NMP [2, 10]: 1.4%
- % of the products formed, NTP [2, 10]: 81%
- % of the products formed, NDP [3, 11]: 80.0%
- % of the products formed, NMP [3, 11]: 1.8%
- % of the products formed, NDP [4, 12]: 82.0%
- % of the products formed, NMP [4, 12]: 1.7%
- % of the products formed, NTP [4, 12]: 1.3%
- GCVDP formed ([5]; Fusion 50 μg, ACV 20 μM): 1220** pmmol
- GCVDP formed ([5]; Fusion 50 μg, ACV 50 μM): 2920** pmmol
- GCVDP formed ([5]; Fusion 50 μg, ACV 50 μM Incub 1 h): 6740** pmmol
- GCVDP formed ([5]; Fusion 200 μg, ACV 100 μM): 18500** pmmol
- GCVDP formed (Mixture 2-865:H12/GMPK; Mixture 2-865/H12/GMPK 133/66 μg, ACV 100 μM): 17260** pmmol
- GCVDP formed (Mixture 2-865:H12/GMPK; Mixture 2-865: H12/GMPK 33/17 μg, ACV 20 μM): 2325** pmmol
- GCVDP formed (Mixture 2-865:H12/GMPK; Mixture 2-865: H12/GMPK 33/17 μg, ACV 50 μM): 3680** pmmol
- GCVDP formed (Mixture 2-865:H12/GMPK; Mixture 2-865: H12/GMPK 33/17 μg, ACV 50 μM Incub 1 h): 5890** pmmol

Compound: Nc1nc(O)c2ncn(COC(CO)CO)c2n1 [GCV, ganciclovir]
- phosphorylation of ganciclovir to ganciclovir diphosphate ([1]; coupling of HSV1-TK and GMPK from S. cerevisiae): 90%
- % of the products formed, NMP ([1]; TK 1.3 μg, GMPK 2.5 μg, 60 min): 4.4%
- % of the products formed, NDP ([1]; TK 2.6 μg, GMPK 2.5 μg, 30 min): 89.0%
- % of the products formed, NMP ([1]; TK 2.6 μg, GMPK 2.5 μg, 30 min): 7.5%
- % of the products formed, NDP [1, 13]: 90.8%
- % of the products formed, NMP [1, 13]: 5.3%
- % of the products formed, NDP [2, 14]: 13.8%
- % of the products formed, NMP [2, 14]: 3.2%
- % of the products formed, NDP [2, 15]: 12.6%
- % of the products formed, NMP [2, 15]: 2.6%
- % of the products formed, NDP [2, 16]: 6.9%
- % of the products formed, NMP [2, 16]: 0.9%
- % of the products formed, NTP [2, 16]: 91.1%
- % of the products formed, NDP [3, 17]: 90.3%
- % of the products formed, NMP [3, 17]: 6.2%
- % of the products formed, NTP [3, 17]: 1.5%
- % of the products formed, NDP [3, 18]: 71.1%
- % of the products formed, NMP [3, 18]: 2.5%
- % of the products formed, NTP [3, 18]: 24%
- % of the products formed, NDP [4, 19]: 78.4%
- % of the products formed, NMP [4, 19]: 6.5%
- % of the products formed, NTP [4, 19]: 12.9%
- % of the products formed, NDP [4, 20]: 5.8%
- % of the products formed, NMP [4, 20]: 0.6%
- % of the products formed, NTP [4, 20]: 92%
- GCVDP formed ([5]; Fusion 2 μg, GCV 50 μM): 4900** pmmol
- GCVDP formed ([5]; Fusion 2 μg, GCV 100 μM): 8270** pmmol
- improvement in phosphorylation by TK-GMPK fusion protein, factor ([5]; compared with coincubation of wild-type TK enzyme and GMPK enzyme): ≤ 1.8
- GCVDP formed [6]: 4660** pmmol
- GCVDP formed (Mixture 2-865:H12/GMPK; Mixture 2-865: H12/GMPK 1.66/0.33 μg, GCV 50 μM): 5300** pmmol
- tumour response (glioma): regressions of tumour
- toxicity (mice): highly toxic

Compound: acyclovir monophosphate [ACVMP]
- Km [7]: 280 µM
- Vmax [7]: 22 µmol/min/mg
- Km [8]: 218 µM and 209 to 753 µM and 330 µM
- Vmax [8]: 1.9^a μmol/min/mg and 3.6^c μmol/min/mg

Compound: ganciclovir monophosphate [GCVMP]
- Km [7]: 18 µM
- Vmax [7]: 40 µmol/min/mg
- phosphorylation rate of yeast guanylate kinase relative to human enzyme ([7]; yeast vs human GMPK): twice as high
- Km [8]: 42 to 54 µM and 40 µM
- Vmax [8]: 20^a μmol/min/mg
